Data on six compounds can be found in patent publication US20090081786A1, “Peptide sequences for modulation of protein kinase C” (priority 2006, published 2009).

The subject of one assay is annexin V/δ-PKC complex. Briefly: co-immunoprecipitation of annexin V/δ-PKC complex from CHO cells. It counts as cell-based, hamster. As for the experimental part: The complexes were immunoprecipitated with anti-δ-PKC antibodies and probed for the presence of annexin V at the combined molecular weight of about 110 kD.
CHO-K1 cells (available through the ATCC) were grown in F-12 (HAM) nutrient mixture supplemented with GLUTAMAX, 10% fetal bovine serum, and antibiotics (100 units/ml penicillin and […] streptomycin sulfate, all from Invitrogen Corp.). The cells were cultured at 37° C. under 5% CO2. At 48 hours prior to the study, the cells were serum starved. They were stimulated with 10 nM phorbol 12-myristate 13-acetate (PMA) (available through LC Laboratories) or with 5 mM H2O2 (available through Sigma Chemical Corp.) for the indicated duration ranging from about 30 seconds to about 5 minutes, a technique well-known to one of skill in the art. The cells were washed with cold PBS, and homogenized on ice with trituration in homogenization buffer (20 mM Tris pH 7.4, 2 mM EDTA, 10 mM EGTA, 0.25M sucrose, 12 mM β-mercaptoethanol, protease inhibitor cocktail (available through Sigma Chemical Corp)), 0.1% TRITON X-100, and 1% formaldehyde.
It was observed that the 0.1% TRITON extracts all of the translocatable PKC from the cell. After 30 min at 4° C., the lysates were quenched with 0.14M glycine for 20 min at 4° C., and the samples were spun at 14K rpm at 4° C. The supernatant was incubated with 1 μg anti-δ-PKC antibody (available through Santa Cruz Biotechnology) for 1 hour, followed by exposure to protein-G beads (available through Invitrogen Corp.) for 3 hours at 4° C. The beads were then washed with wash buffer (20 mM Tris pH 7.5, 2 mM EDTA, 100 mM NaCl, 12 mM β-mercaptoethanol, 0.1% TRITON), and separated on 7.5% SDS-PAGE, transferred to nitrocellulose, and probed with anti-annexin V (available through Santa Cruz Biotechnology), followed by visualization using an enhanced chemiluminescence (ECL) method.

In assay [1] the test system is δ-PKC. Briefly: real-time confocal imaging of YFP-δPKC translocation in CHO cells. The settings on record: 10 μM pretreatment for 30 minutes, 100 nM PMA, vs untreated. Type of assay: cell-based, hamster. As to the method: CHO cells were grown on chambered #1 Borosilicate coverglass (Lab-Tek), transfected at 50% confluency using Fugene 6 (Roche), according to the manufacturer's instructions, with CFP-annexin V and YFP-δPKC cloned into the pECFP-C1 and pEYFP-C1 vectors, respectively (Clontech). The cells were serum starved for 24 hours. Real-time confocal imaging was conducted on a spinning disk Nipkow confocal microscope, and the cells were viewed using an inverted Olympus IX70 microscope with a 40× oil immersion Olympus objective (1.35 NA). Images were acquired using a CCD camera (Hamamatsu) with 2×2 pixel binning. […]
Fluorescence intensity was measured using METAMORPH data analysis software (Universal Imaging). To monitor the translocation of the PKC and the increases in FRET signal, a small region of interest was selected from each cell and fluorescence intensity values were graphed against time and normalized to the initial fluorescence. FRET was calculated using a formula that corrects for bleed-through and donor concentration: FRET=(I(442-530)-αI(442-480)-βI(515-530))/I(442-480). The α and β coefficients were calculated from singly transfected cells, where α=I(442-530)/I(442-480)=47.6% of CFP bleed-through into the YFP channel, and β=I(442-530)/I(515-530)=14.4% of YFP excitation from the CFP channel.

In a further assay the test system is δ-PKC/annexin V. Briefly: δ-PKC/annexin V binding ELISA assay. (In an ELISA, binding on a coated surface is turned into a signal by an enzyme label.)
The subject of the next assay is isolated rat hearts. Briefly: ex vivo model of ischemia and reperfusion in isolated rat hearts. The settings on record: 1 μM. As to the method:
FIG. 6C compares the infarct sizes that were measured on both sides of the tissue slices and averaged. […] In FIG. 6D, creatine phosphokinase (CPK) release was measured in the heart perfusate during the reperfusion.

In a further assay the test system is ε-PKC. Nature of the assay: PMA-induced translocation of ε-PKC in CHO cells. Conditions: peptide pretreatment. Type of assay: cell-based, hamster. As for the experimental part:
(§1) The CHO cells of Example 1 were fractionated, stimulated, and washed with cold PBS, scraped in homogenization buffer, and spun at 100,000 g for 30 min at 4° C., resulting in the soluble fraction. The pellet was then resuspended in a homogenization buffer with 1% TRITON X-100, and spun under the same conditions. Where applicable, the cells were pre-incubated with 1 μM peptide for 15 minutes prior to stimulation. The samples were then analyzed using a Western blot, and the loading was corrected for protein concentration using an internal control such as actin.

In assay [2] the test system is δ-PKC. Nature of the assay: PMA-induced translocation of δ-PKC from soluble to particulate fraction in CHO cells. Type of assay: cell-based, hamster. Conditions: 1 μM peptide pretreatment, 5 minutes of PMA stimulation. As for the experimental part: as §1
The target of another assay is T1, annexin V (Homo sapiens, UniProt P08758).
T1 sequence (P08758 1-320): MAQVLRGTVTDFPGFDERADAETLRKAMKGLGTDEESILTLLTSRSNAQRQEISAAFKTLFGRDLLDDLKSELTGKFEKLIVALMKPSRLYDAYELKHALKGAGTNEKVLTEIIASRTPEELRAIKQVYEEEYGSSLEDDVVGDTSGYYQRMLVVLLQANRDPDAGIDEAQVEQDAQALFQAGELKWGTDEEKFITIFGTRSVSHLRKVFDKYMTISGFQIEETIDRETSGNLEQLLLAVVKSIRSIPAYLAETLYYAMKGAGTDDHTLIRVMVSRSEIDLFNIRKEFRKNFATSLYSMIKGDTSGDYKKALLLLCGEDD
Nature of the assay: overlay binding assay on immobilized annexin V. The settings on record: immobilized annexin V on nitrocellulose, overlay 37° C. 30 min, Western blotting. As to the method: A binding assay was performed in vitro, using an immobilized annexin V with the δ-PKC, δ-V1 (SEQ ID NO:18) (the C2 domain of δ-PKC), δ-V5 (SEQ ID NO:19), and ε-V1 (SEQ ID NO:20) peptides. These domains are recognized in the art as participating in protein-protein interactions.
10 μg of the annexin V was separated on 12% SDS-PAGE gel and transferred to nitrocellulose, and then cut into strips. The strips were incubated with blocking buffer (50 mM Tris pH 7.5, 200 mM NaCl, 3% bovine serum albumin, 0.1% PEG20). The strips were then incubated in overlay buffer (50 mM Tris pH 7.5, 200 mM NaCl, 1% PEG20, 12 mM β-mercaptoethanol) in the presence where appropriate of 30 μg crude bacterial cell lysate containing fusion proteins of myelin basic protein (MBP)-delta V1 PKC (MBP-δV1), glutathione-S-transferase-delta V5 PKC (GST-δV5), and full length sequences of δ-PKC or rat purified ε-PKC (SEQ ID NO:21) at 37° C. for 30 min. The strips where then washed with wash buffer (50 mM Tris pH 7.5, 200 mM NaCl, 0.1% PEG20, 12 mM β-mercaptoethanol), and then incubated with fixative (0.2% formaldehyde in PBS) and neutralizing solution (0.2M glycine in PBS) at room temperature 20 min each. After washing with buffer, the strips were probed with antibodies according to the overlay protein, and resulting bands were visualized using ECL Western blotting.
In general terms: In western blotting, separated proteins are transferred to a membrane and probed.

As for `OO` [H2O2], the “association between annexin V and δ-PKC” value in the assay with annexin V/δ-PKC complex (H2O2 5 mM, 0.5-1 minute treatment) was “transient association”.
With `CCCCCCCCCCCCCC(=O)O[C@@H]1[C@@H](C)[C@@]2(O)[C@@H](C=C(CO)C[C@]3(O)C(=O)C(C)=C[C@@H]23)[C@@H]2C(C)(C)[C@]12OC(C)=O` [PMA, phorbol 12-myristate 13-acetate], the “increase in the amount of annexin V/δ-PKC complex” value in the assay with annexin V/δ-PKC complex (10 nm PMA, within the first 0.5 minutes of treatment) is listed as roughly 4 fold.
Consider `COC(=O)Nc1nc2ccc(C(=O)c3cccs3)cc2[nH]1` [nocodazole], for which the “translocation profile of overexpressed δ-PKC” value in the assay with δ-PKC [1] is reported as “did not alter the translocation profile”.
Turning to “EpAnxV: pAnxV in which the arginine in annexin V was replaced with the glutamate found in δ-PKC (SEQ ID NO:33) (YGRKKRRQRRRCCLQANEDPD; listed as Homo sapiens)”, in the assay with δ-PKC/annexin V, the “δ-PKC/annexin V binding in ELISA” value is “no significant effect”. Besides, in the assay on isolated rat hearts (10 minutes prior to 30-minute no-flow ischemia and 10 minutes at onset of 60 minutes reperfusion, TTC staining), the “reduction of infarct size” value is on record as “had no effect”. Moreover, the “reduction in necrosis (creatine phosphokinase release in heart perfusate)” value in the assay with isolated rat hearts (CPK measured during reperfusion) is “did not show any statistical difference from the control heart”. In the assay on isolated rat hearts (isolated rat hearts), the “ischemia-induced δ-PKC-mediated damage to the heart” value is reported as “did not inhibit”. In the assay on ε-PKC, the “PMA-induced translocation of ε-PKC” value was “neither peptide affected”.
For “LQANRDPD [pAnxV, annexin V-derived peptide, annexin V residues 157-164, conjugated to TAT47-57 carrier peptide]”, the “δ-PKC/annexin V binding in ELISA” value in the assay with δ-PKC/annexin V is reported as “inhibited”. Further, the “δ-PKC/annexin V complex formation (immunoprecipitation)” value in the assay with annexin V/δ-PKC complex (peptide pretreatment) is reported as “blocked”. In the assay with ε-PKC, the “PMA-induced translocation of ε-PKC” value is on record as “neither peptide affected”. Also, the “PMA-induced translocation of δ-PKC to the particulate fraction” value with δ-PKC [2] was “blocked”.
Regarding “δ-V5: V5 domain of δ-PKC (SEQ ID NO:19), used as glutathione-S-transferase fusion (PKVKSPSDYSNFDPEFLNEKPQLSFSDKNLIDSMDQEAFHGFSFVNPKFEQFLDI; left off: a dimerising Fc or GST)”, in the assay with annexin V, the “binding to annexin V” value is on record as “bind to the annexin V”.
